“Also recorded” adds a separate entry of the source.
Experiments:
[1] = system: GM-CSF induced STAT5 phosphorylation in BMDMs; experiment: GM-CSF induced STAT5 phosphorylation in macrophages; type: cell-based, mouse; conditions: wild type BMDMs, 10 μM inhibitor 2 h, 10 ng/ml GM-CSF
Procedure: (A) BMDMs were isolated from wild type mice. Cells were incubated with the indicated inhibitors in μM for 2 h before stimulation with 10 ng/ml IL-4 for 30 min. The levels of phosphorylated STAT6 were then determined by immunoblotting. (B) As (A) except cells were stimulated 10 ng/ml GM-CSF and the levels of phosphorylated STAT5 determined. (C) As (A) except cells were stimulated 10 ng/ml IL-10 and the levels of phosphorylated STAT3 determined. (D) As (A) except cells were stimulated 10 ng/ml IFNβ and the levels of phosphorylated STAT1 determined. For A–D, levels of ERK1/2 were determined as a loading control.
Bone marrow derived macrophages (BMDMs) were cultured as described. Briefly, bone marrow was flushed in PBS from the femurs and tibias of mice. […]
Cells were lysed directly into SDS sample buffer and aliquots run on 10% polyacrylamide gels using standard methods. Proteins were transferred onto nitrocellulose membranes, and specific proteins were detected by immunoblotting. […] Bands were detected using Clarity ECL reagents from BioRad and imaged on a Licor Odyssey Fc system. Quantification was carried out using Licor Image Studio software. After correction for the ERK1/2 levels to account for loading differences, percentage inhibition was calculated relative to the IL-4 stimulated condition. IC50 values were calculated using the same methods as for the in vitro IC50 values.

p38a MAPK = p38a MAPK (Homo sapiens, UniProt Q16539); experiment: Selectivity screen p38a MAPK; type: biochemical; conditions: 1 µM inhibitor, mean
Chain of p38a MAPK (Q16539 whole entry): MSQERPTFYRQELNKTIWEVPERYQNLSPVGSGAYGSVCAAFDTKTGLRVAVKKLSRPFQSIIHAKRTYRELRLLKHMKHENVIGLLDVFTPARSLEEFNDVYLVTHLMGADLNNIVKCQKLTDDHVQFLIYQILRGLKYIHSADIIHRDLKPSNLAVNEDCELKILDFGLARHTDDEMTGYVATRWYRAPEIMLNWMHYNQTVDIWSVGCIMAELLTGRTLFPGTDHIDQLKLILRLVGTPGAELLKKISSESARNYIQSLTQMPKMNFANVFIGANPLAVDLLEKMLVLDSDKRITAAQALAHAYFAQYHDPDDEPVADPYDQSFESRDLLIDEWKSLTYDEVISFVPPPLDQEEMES
Procedure: (§1) For the in vitro kinase assay, JAK3 (5–20 mU diluted in 50 mM Tris pH 7.5, 0.1 mM EGTA, 0.05% β-mercaptoethanol, 1 mg/ml BSA) was assayed against PDKtide ([…]) in a final volume of 25.5 µl containing 50 mM Tris pH 7.5, 0.1 mM EGTA, 0.05% β-mercaptoethanol, 100 µM substrate peptide, 10 mM magnesium acetate and 0.02 mM [33P-γ-ATP] (50–1000 cpm/pmole) and incubated for 30 min at room temperature. Assays were started by the addition of the ATP and stopped by addition of 5 µl of 0.5 M (3%) orthophosphoric acid and then harvested onto P81 Unifilter plates with a wash buffer of 50 mM orthophosphoric acid. To determine the Km for ATP, assays were run using 1, 5, 10, 20, 50, 100, 200, 400, 500 μM ATP and Km derived by non-linear regression fitting to the Michaelis–Menten equation v = Vmax[S]/(Km + [S]). IC50 values for inhibitors via non-linear regression using a parameter model: Y = Bottom + (Top–Bottom)/(1 + (IC50/X)^HillSlope). Non-linear regression was carried out in Prism (version 8). In vitro selectivity screen was carried out as described previously.

PAK2 = PAK2 (Homo sapiens, UniProt Q13177); experiment: Selectivity screen PAK2; type: biochemical; conditions: 1 µM inhibitor, mean
Chain of PAK2 (Q13177 whole entry): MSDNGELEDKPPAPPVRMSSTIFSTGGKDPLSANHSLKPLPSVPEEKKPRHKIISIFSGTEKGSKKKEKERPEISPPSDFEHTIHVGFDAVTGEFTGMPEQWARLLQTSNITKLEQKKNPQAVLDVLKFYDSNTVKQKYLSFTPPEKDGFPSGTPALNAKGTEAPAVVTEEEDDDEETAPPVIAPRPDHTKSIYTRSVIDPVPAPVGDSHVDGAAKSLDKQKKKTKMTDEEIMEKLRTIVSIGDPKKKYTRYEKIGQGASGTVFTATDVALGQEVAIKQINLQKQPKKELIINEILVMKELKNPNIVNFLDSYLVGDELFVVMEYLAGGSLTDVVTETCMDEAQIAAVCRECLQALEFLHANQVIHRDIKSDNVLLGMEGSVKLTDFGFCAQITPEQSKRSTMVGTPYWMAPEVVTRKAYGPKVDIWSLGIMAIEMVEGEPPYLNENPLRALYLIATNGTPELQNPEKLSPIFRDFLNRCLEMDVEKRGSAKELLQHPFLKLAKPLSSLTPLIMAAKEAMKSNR
Procedure: as §1

ULK1 = ULK1 (Homo sapiens, UniProt O75385); experiment: Selectivity screen ULK1; type: biochemical; conditions: 1 µM inhibitor, mean
Procedure: as §1

CDK2-Cyclin A = CDK2-Cyclin A (Homo sapiens, UniProt P24941); experiment: Selectivity screen CDK2-Cyclin A; type: biochemical; conditions: 1 µM inhibitor, mean
MSK1 = MSK1 (Homo sapiens, UniProt O75582); experiment: Selectivity screen MSK1; type: biochemical; conditions: 1 µM inhibitor, mean
Procedure: as §1

PKCz = PKCz (Homo sapiens, UniProt Q05513); experiment: Selectivity screen PKCz; type: biochemical; conditions: 1 µM inhibitor, mean
Procedure: as §1

MARK1 = MARK1 (Homo sapiens, UniProt Q9P0L2); experiment: Selectivity screen MARK1; type: biochemical; conditions: 1 µM inhibitor, mean
Procedure: as §1

CHK2 = CHK2 (Homo sapiens, UniProt O96017); experiment: Selectivity screen CHK2; type: biochemical; conditions: 1 µM inhibitor, mean
Procedure: as §1

PIM1 = PIM1 (Homo sapiens, UniProt P11309); experiment: Selectivity screen PIM1; type: biochemical; conditions: 1 µM inhibitor, mean
Procedure: as §1

MLK3 = MLK3 (Homo sapiens, UniProt Q16584); experiment: Selectivity screen MLK3; type: biochemical; conditions: 1 µM inhibitor, mean
Chain of MLK3 (Q16584 whole entry): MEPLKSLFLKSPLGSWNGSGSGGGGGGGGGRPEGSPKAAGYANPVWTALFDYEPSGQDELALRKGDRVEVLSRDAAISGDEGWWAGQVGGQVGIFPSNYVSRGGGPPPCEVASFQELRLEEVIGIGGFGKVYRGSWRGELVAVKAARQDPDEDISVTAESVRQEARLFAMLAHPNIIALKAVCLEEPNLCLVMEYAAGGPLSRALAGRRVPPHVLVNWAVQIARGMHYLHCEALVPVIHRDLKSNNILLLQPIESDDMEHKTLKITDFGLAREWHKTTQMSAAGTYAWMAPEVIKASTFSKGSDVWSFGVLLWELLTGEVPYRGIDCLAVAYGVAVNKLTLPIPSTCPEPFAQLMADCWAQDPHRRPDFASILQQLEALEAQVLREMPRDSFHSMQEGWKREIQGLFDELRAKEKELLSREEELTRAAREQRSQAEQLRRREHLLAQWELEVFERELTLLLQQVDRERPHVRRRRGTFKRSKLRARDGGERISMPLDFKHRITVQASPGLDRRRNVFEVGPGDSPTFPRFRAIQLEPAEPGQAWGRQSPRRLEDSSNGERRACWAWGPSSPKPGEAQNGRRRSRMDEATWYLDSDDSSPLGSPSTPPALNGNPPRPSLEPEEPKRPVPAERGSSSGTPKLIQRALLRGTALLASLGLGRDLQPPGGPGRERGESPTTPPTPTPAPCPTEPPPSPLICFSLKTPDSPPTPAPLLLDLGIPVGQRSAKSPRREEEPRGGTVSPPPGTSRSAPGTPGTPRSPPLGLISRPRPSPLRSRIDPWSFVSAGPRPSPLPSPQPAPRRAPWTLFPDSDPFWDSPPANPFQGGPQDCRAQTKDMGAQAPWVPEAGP
Procedure: as §1

FGF-R1 = FGF-R1 (Homo sapiens, UniProt P11362); experiment: Selectivity screen FGF-R1; type: biochemical; conditions: 1 µM inhibitor, mean
Procedure: as §1

NEK2a = NEK2a (Homo sapiens, UniProt P51955); experiment: Selectivity screen NEK2a; type: biochemical; conditions: 1 µM inhibitor, mean
Procedure: as §1

CK1γ2 = CK1γ2 (Homo sapiens, UniProt P78368); experiment: Selectivity screen CK1γ2; type: biochemical; conditions: 1 µM inhibitor, mean
Procedure: as §1

EPH-B2 = EPH-B2 (Homo sapiens, UniProt P29323); experiment: Selectivity screen EPH-B2; type: biochemical; conditions: 1 µM inhibitor, mean
Chain of EPH-B2 (P29323 19-1055): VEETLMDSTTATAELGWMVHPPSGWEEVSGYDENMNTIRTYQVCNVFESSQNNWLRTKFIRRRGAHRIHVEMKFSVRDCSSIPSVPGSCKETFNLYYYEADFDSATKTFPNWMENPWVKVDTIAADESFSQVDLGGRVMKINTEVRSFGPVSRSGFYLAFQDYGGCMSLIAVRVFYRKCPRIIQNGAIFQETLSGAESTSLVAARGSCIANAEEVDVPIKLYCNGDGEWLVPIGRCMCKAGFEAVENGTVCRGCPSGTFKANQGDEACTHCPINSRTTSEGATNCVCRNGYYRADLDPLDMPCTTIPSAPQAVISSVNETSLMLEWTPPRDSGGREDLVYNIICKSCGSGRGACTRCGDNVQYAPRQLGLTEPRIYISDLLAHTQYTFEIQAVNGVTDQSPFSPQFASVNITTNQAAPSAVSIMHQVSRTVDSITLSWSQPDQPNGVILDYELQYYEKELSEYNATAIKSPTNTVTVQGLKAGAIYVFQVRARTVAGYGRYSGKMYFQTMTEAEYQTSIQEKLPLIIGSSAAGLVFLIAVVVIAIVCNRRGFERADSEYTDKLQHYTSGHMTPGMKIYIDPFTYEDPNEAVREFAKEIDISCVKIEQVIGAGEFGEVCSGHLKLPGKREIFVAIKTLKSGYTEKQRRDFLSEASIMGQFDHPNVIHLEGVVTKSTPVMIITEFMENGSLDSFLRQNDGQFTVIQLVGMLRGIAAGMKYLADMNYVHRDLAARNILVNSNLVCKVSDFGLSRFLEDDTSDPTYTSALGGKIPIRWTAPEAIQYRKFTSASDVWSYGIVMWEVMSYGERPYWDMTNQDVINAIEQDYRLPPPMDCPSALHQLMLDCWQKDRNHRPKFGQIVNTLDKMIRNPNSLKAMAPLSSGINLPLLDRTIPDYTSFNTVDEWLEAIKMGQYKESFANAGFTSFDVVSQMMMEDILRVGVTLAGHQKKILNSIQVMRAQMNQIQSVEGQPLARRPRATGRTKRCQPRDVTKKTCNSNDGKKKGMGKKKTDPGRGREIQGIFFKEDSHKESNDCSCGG
Procedure: as §1

TGFBR1 = TGFBR1 (Homo sapiens, UniProt P36897); experiment: Selectivity screen TGFBR1; type: biochemical; conditions: 1 µM inhibitor, mean
Procedure: as §1

OSR1 = OSR1 (Homo sapiens, UniProt O95747); experiment: Selectivity screen OSR1; type: biochemical; conditions: 1 µM inhibitor, mean
Procedure: as §1

CAMKKb = CAMKKb (Homo sapiens, UniProt Q96RR4); experiment: Selectivity screen CAMKKb; type: biochemical; conditions: 1 µM inhibitor, mean
Chain of CAMKKb (Q96RR4 whole entry): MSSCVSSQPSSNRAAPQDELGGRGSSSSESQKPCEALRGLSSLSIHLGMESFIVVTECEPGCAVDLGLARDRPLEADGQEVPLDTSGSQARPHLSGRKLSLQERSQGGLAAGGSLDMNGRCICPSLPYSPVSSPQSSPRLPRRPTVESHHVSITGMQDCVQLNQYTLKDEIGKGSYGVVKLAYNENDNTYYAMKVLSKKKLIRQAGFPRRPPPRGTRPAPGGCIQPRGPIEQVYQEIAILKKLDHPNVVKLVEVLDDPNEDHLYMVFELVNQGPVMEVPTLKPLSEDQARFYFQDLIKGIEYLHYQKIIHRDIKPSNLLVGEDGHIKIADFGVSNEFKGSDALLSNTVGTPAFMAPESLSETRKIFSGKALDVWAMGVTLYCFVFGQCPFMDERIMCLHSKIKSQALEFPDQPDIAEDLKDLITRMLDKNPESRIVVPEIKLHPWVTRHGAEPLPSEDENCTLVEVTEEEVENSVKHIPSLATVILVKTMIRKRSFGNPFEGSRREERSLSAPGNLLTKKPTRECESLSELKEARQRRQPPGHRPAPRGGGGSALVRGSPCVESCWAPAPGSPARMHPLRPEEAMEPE

HIPK3 = HIPK3 (Homo sapiens, UniProt Q9H422); experiment: Selectivity screen HIPK3; type: biochemical; conditions: 1 µM inhibitor, mean
Procedure: as §1

PIM3 = PIM3 (Homo sapiens, UniProt Q86V86); experiment: Selectivity screen PIM3; type: biochemical; conditions: 1 µM inhibitor, mean
Procedure: as §1

JNK2 = JNK2 (Homo sapiens, UniProt P45984); experiment: Selectivity screen JNK2; type: biochemical; conditions: 1 µM inhibitor, mean
Chain of JNK2 (P45984 whole entry): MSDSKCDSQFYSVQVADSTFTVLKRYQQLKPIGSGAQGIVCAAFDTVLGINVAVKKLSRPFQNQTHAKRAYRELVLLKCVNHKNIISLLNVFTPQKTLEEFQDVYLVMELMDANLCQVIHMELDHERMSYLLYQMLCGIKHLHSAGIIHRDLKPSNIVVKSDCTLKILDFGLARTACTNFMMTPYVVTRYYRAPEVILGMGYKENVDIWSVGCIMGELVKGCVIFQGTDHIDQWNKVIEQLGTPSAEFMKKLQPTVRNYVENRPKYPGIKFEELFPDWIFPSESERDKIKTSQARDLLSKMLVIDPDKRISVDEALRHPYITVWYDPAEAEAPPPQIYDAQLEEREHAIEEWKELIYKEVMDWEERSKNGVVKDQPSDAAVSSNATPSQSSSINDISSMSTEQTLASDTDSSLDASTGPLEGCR
Procedure: as §1

TBK1 = TBK1 (Homo sapiens, UniProt Q9UHD2); experiment: Selectivity screen TBK1; type: biochemical; conditions: 1 µM inhibitor, mean
Procedure: as §1

MAP4K5 = MAP4K5 (Homo sapiens, UniProt Q9Y4K4); experiment: Selectivity screen MAP4K5; type: biochemical; conditions: 1 µM inhibitor, mean
Chain of MAP4K5 (Q9Y4K4 whole entry): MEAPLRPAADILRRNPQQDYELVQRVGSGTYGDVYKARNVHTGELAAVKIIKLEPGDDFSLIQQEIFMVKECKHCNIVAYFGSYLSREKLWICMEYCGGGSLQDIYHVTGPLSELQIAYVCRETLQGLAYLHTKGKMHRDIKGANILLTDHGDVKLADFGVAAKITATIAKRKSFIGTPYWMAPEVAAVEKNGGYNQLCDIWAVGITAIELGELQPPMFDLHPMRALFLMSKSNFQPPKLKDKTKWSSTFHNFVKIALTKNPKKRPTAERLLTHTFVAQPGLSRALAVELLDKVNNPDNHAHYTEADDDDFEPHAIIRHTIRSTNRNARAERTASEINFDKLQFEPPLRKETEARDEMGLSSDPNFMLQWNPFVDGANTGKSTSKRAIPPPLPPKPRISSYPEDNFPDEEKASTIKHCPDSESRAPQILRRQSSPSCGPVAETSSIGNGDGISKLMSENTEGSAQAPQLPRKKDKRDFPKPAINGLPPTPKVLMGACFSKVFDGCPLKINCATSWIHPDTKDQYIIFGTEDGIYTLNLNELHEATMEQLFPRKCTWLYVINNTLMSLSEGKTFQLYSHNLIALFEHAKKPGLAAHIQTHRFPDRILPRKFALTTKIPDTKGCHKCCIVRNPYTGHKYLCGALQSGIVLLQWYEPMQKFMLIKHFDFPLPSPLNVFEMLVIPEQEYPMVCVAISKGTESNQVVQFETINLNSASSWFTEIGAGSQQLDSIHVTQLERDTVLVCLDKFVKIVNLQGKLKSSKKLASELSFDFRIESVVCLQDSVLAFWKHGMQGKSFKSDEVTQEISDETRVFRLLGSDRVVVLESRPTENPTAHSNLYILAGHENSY
Procedure: as §1

SMILES | inhibition of GM-CSF induced STAT5 phosphorylation [1] | activity remaining in the presence of the inhibitor: p38a MAPK (p38a MAPK) | activity remaining in the presence of the inhibitor: PAK2 (PAK2) | activity remaining in the presence of the inhibitor: ULK1 (ULK1) | activity remaining in the presence of the inhibitor: CDK2-Cyclin A (CDK2-Cyclin A) | activity remaining in the presence of the inhibitor: MSK1 (MSK1) | activity remaining in the presence of the inhibitor: PKCz (PKCz) | activity remaining in the presence of the inhibitor: MARK1 (MARK1) | activity remaining in the presence of the inhibitor: CHK2 (CHK2) | activity remaining in the presence of the inhibitor: PIM1 (PIM1) | activity remaining in the presence of the inhibitor: MLK3 (MLK3) | activity remaining in the presence of the inhibitor: FGF-R1 (FGF-R1) | activity remaining in the presence of the inhibitor: NEK2a (NEK2a) | activity remaining in the presence of the inhibitor: CK1γ2 (CK1γ2) | activity remaining in the presence of the inhibitor: EPH-B2 (EPH-B2) | activity remaining in the presence of the inhibitor: TGFBR1 (TGFBR1) | activity remaining in the presence of the inhibitor: OSR1 (OSR1) | activity remaining in the presence of the inhibitor: CAMKKb (CAMKKb) | activity remaining in the presence of the inhibitor: HIPK3 (HIPK3) | activity remaining in the presence of the inhibitor: PIM3 (PIM3) | other results
C=CC(=O)N1C[C@H](Nc2ncnc3[nH]ccc23)CC[C@@H]1C [PF-06651600, 1-((2S,5R)-5-((7H-Pyrrolo[2,3-d]pyrimidin-4-yl)amino)-2-methylpiperidin-1-yl)prop-2-en-1-one, reference compound] | Neither TL8-52 or PF-06651600 inhibited; also recorded: did not block |  |  |  |  |  |  |  |  |  |  |  |  |  |  |  |  |  |  |  | 
C=CC(=O)Nc1cccc(CNc2nc(Nc3ccc(N4CCN(C)CC4)cc3OC)ncc2Cl)c1 [TL6-144] |  | 96 | 81 | 65 | 87 | 86 | 88 | 87 | 38 | 95 | 31 | 44 | 96 | 82 | 96 | 83 | 47 | 6 | 91 | 100 | activity remaining in the presence of the inhibitor: JNK2 (JNK2): 98; activity remaining in the presence of the inhibitor: TBK1 (TBK1): 78; activity remaining in the presence of the inhibitor: MAP4K5 (MAP4K5): 83
C=CC(=O)Nc1cccc(CNc2nc(Nc3ccc(N4CCOCC4)cc3)ncc2Cl)c1 [TL8-52] | Neither TL8-52 or PF-06651600 inhibited | 119 | 75 | 48 | 84 | 54 | 98 | 44 | 75 | 111 | 3 | 49 | 135 | 96 | 81 | 104 | 98 | 22 | 107 | 90 | activity remaining in the presence of the inhibitor: JNK2 (JNK2): 95; activity remaining in the presence of the inhibitor: TBK1 (TBK1): 11; activity remaining in the presence of the inhibitor: MAP4K5 (MAP4K5): 63

Reference: article PMC8115619, “Generation of a chemical genetic model for JAK3” (Scientific Reports, 2021)
